Experimental data taken from article PMC5384001 (Scientific Reports, 2017).

Target: T1, GluD2-Lc-(HS2)GluN1 (Rattus norvegicus, UniProt Q63226, A654T/A766F/D767R/N763E/R768S/T764L/V761T/V765F)
T1 construct: the function of full-length receptors as well, we introduced them into the GluD2 lurcher mutant (GluD2-Lc); expressed in transfected cells; host or cells: Xenopus laevis oocytes injected with cRNA
T1 sequence (Q63226 24-1007 A654T/V761T/N763E/T764L/V765F/A766F/D767R/R768S): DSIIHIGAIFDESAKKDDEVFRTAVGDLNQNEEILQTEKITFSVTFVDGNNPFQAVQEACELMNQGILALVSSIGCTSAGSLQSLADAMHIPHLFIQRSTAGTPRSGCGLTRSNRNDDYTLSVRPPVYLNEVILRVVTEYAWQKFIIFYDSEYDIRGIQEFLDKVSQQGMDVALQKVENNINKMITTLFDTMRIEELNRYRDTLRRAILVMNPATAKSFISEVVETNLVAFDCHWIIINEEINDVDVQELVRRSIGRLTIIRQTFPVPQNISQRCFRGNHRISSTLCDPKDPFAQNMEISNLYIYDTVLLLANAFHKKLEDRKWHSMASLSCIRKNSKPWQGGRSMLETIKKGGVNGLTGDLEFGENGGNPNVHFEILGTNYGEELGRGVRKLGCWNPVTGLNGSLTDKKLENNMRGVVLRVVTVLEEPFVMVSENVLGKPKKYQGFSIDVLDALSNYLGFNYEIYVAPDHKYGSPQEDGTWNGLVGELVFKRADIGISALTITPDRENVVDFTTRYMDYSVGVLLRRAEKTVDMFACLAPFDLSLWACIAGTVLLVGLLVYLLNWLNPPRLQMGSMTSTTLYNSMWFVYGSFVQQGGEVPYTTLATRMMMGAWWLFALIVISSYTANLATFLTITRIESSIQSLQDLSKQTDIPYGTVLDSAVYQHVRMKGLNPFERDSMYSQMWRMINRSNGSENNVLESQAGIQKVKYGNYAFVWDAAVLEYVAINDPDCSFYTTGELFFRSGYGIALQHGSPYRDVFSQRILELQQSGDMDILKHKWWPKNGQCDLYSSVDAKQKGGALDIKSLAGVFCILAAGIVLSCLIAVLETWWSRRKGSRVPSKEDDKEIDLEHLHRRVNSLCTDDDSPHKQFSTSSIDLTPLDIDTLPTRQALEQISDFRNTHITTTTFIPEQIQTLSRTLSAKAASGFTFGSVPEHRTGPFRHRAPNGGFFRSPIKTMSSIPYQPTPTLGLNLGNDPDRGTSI
Assay: Two-electrode voltage clamp in Xenopus oocytes, inhibition of spontaneous currents
Format: cell-based
Text: All cDNAs for expression in Xenopus oocytes were cloned into the vector pSGEM[30]. Point mutants of GluD2-Lc were constructed by overlap extension PCR with mutagenic oligonucleotide primers. The GluD2-Lc-(H)GluN1 chimera was constructed by transferring the S1- and S2-encoding sequences from GluD2-LBD-(H)GluN1 to GluD2-Lc via overlap extension PCR using tail primers. The S1 and S2 sequences were transferred separately, yielding GluD2-Lc-(HS1)GluN1 and GluD2-Lc-(HS2)GluN1 constructs. GluD2-Lc-(H)GluN1 was then produced from these by another overlap extension PCR. Complementary RNA (cRNA) for injection into oocytes was synthesised from 1 μg of linearised template DNA with the mMESSAGE mMACHINE in vitro transcription kit (Ambion, Austin, TX, USA).
Oocytes were obtained by surgically removing parts of the ovaries from Xenopus laevis (Nasco, Fort Atkinson, WI, USA) anaesthetised with 1.5 g/L 3-aminobenzoic acid ethylester (Sigma, Taufkirchen, Germany). The ovary clippings were digested with 784 U/mL (4 mg/mL) collagenase type I (Worthington, Lakewood, NJ, USA) in Ca^2+-free Barth’s solution (88 mM NaCl, 1.1 mM KCl, 2.4 mM NaHCO3, 0.8 mM MgSO4, 15 mM HEPES-NaOH, pH 7.6) with gentle agitation for 1.5–2 h at 20 °C to remove the follicular cell layer. After stopping the collagenase digestion by washing with Barth’s solution (88 mM NaCl, 1.1 mM KCl, 2.4 mM NaHCO3, 0.3 mM Ca(NO3)2, 0.4 mM CaCl2, 0.8 mM MgSO4, 15 mM HEPES-NaOH, pH 7.6), defolliculated oocytes of stages V and VI were selected and maintained at 16 °C in Barth’s solution supplemented with 100 μg/mL gentamicin, 40 μg/mL streptomycin, and 63 μg/mL penicillin. Oocytes were injected with 11 ng cRNA (10 ng of each cRNA for co-expression of GluN1 and GluN2A) using a nanoliter injector (WPI, Sarasota, FL, USA). Four days after cRNA injection, current responses were recorded under voltage clamp at –70 mV with a Turbo Tec-10CD amplifier (npi electronic, Tamm, Germany) controlled by Patchmaster software (HEKA, Lambrecht, Germany). Currents were filtered with a 20 Hz low-pass filter and then digitised with a sampling rate of 50 Hz. Recording electrodes were pulled from borosilicate glass (Hilgenberg, Malsfeld, Germany) with an L/M-3P-A vertical pipette puller (List-Medical), filled with 3 M KCl, and had resistances of 0.5–5 MΩ (voltage electrode) or 0.5–1.5 MΩ (current electrode). Recordings were performed in a 50 μL chamber under constant superfusion with extracellular solution at a flow rate of 3–5 mL/min. […] Finally, Ba-NFR and then NMDGR were applied again to check for reversibility.

SMILES: N[C@H](CO)C(=O)O [D-serine]
- D-serine efficacy Mean ± SEM (fraction of spontaneous current inhibited by D-serine): 0.9 ± 0.4%
- sensitivity to D-serine (inhibition of spontaneous currents): insensitive
